Reference: article PMC9779606, “Synthesis, Structural Characterization and Biological Activity Evaluation of Novel Cu(II) Complexes with 3-(trifluoromethyl)phenylthiourea Derivatives” (International Journal of Molecular Sciences, 2022)
In brackets after ≈: the same amount, converted by molar mass. Like-named read-outs stand apart in the source and are kept apart here.

What was measured:
M. tuberculosis H37Rv = experiment: Tuberculostatic activity, Microplate Alamar Blue Assay (MABA); type: cell-based, Mycobacterium tuberculosis; settings: Mycobacterium tuberculosis
[1] = system: M. tuberculosis Spec. 192; experiment: as above; type: cell-based, Mycobacterium tuberculosis; settings: Mycobacterium tuberculosis
[2] = system: 30 clinically isolated strains of S. aureus and S. epidermidis; parameters: method as in PMID 28822236, PMID 29499458; settings: cited from earlier work
[3] = system: HaCaT (immortalized human keratinocytes); experiment: Cytotoxicity, MTT assay; type: cell-based; settings: 72 h, normal cells, mean SD
Description: (§1) MTT assay was performed as previously described. Experiments were repeated three times. […] Decreased relative MTT level means decreased cell viability.

[4] = system: SW480 (primary colon cancer); experiment: Cytotoxicity, MTT assay; type: cell-based, human; settings: mean SD
Description: as §1

[5] = system: SW620 (metastatic colon cancer); experiment: Cytotoxicity, MTT assay; type: cell-based, human; settings: 72 h, mean SD
Description: as §1

[6] = M. tuberculosis H37Rv, standard strain, MABA, read-out: MIC
[7] = M. tuberculosis Spec. 192, patient isolate fully sensitive to tuberculostatics, MABA, read-out: MIC

With `[H]/N=C(/N)N[C@H]1[C@H](O)[C@@H](O)[C@H](O[C@@H]2O[C@@H](C)[C@](O)(C=O)[C@H]2O[C@@H]2O[C@@H](CO)[C@H](O)[C@@H](O)[C@@H]2NC)[C@@H](N/C(N)=N\[H])[C@@H]1O` [Streptomycin (SM), Streptomycin, reference compound] the MIC (M. tuberculosis H37Rv; [6]) was 1 µg/mL (≈ 1.72 µM) and the MIC [1, 7] was 1 µg/mL (≈ 1.72 µM).

Compound `CC[C@@H](CO)NCCN[C@@H](CC)CO` [Ethambutol (EMB), Ethambutol, reference compound] has an MIC (M. tuberculosis H37Rv; [6]) of 2 µg/mL (≈ 9.79 µM) and an MIC [1, 7] of 2 µg/mL (≈ 9.79 µM).

`CO[C@H]1/C=C/O[C@@]2(C)Oc3c(C)c(O)c4c(O)c(c(/C=N/N5CCN(C)CC5)c(O)c4c3C2=O)NC(=O)/C(C)=C\C=C\[C@H](C)[C@H](O)[C@@H](C)[C@@H](O)[C@@H](C)[C@H](OC(C)=O)[C@@H]1C` [Rifampicin (RMP), Rifampicin, reference compound] gave an MIC (M. tuberculosis H37Rv; [6]) of 1 µg/mL (≈ 1.22 µM) and an MIC [1, 7] of 1 µg/mL (≈ 1.22 µM).

For “complex with 1-1-(3,4-dichlorophenyl)-3-[3-(trifluoromethyl) phenyl]thiourea”, the MIC [2] is listed as 0.5 to 2 µg/mL.

With `COc1cccc2c1C(=O)c1c(O)c3c(c(O)c1C2=O)C[C@@](O)(C(=O)CO)C[C@@H]3O[C@H]1C[C@H](N)[C@H](O)[C@H](C)O1` [Doxorubicin, doxorubicin, reference compound] the IC50 ([3]; Homo sapiens, HaCaT) was 0.29 ± 0.11 µM and the IC50 ([4]; Homo sapiens, SW480, 72 h) was 0.75 ± 0.1 µM.

`N.N.[Cl][Pt][Cl]` [Cisplatin, cisplatin, reference compound] showed an IC50 [3] of 6.3 ± 0.7 µM, an IC50 [5] of 6.7 ± 1.1 µM and an IC50 ([4]; 72 h) of 10.4 µM.

In the case of `NNC(=O)c1ccncc1` [Isoniazid (INH), Isoniazid, reference compound], the MIC (M. tuberculosis H37Rv; H37RV) is reported as 0.125 µg/mL (≈ 0.911 µM) and the MIC ([1]; SPEC.192) is reported as 0.125 µg/mL (≈ 0.911 µM).
